# Assay results taken from US20240299360A1, “ADAMTS INHIBITORS, PREPARATION METHODS AND MEDICINAL USES THEREOF” (Jiangsu Hengrui Pharmaceuticals Co., Ltd., priority 2020, published 2024).
# How the values were obtained:
# [1] = molecular target: ADAMTS-4 recombinant protein (Homo sapiens (Human), UniProt O75173); test: In vitro fluorescence (FRET-peptide) enzymatic assay of ADAMTS-4 activity; format: biochemical; conditions: FRET peptide substrate 15 μM, 10 nM enzyme, 37° C. 3 hours
# Protocol: (§1) A FRET (fluorescence resonance energy transfer) peptide was cleaved by recombinant ADAMTS-4 or ADAMTS-5 proteins into two separate fragments resulting in an increase of fluorescence signal which was quantified. The peptide was 5-FAM-[…](5-TAMRA)K-NH2, customized from ANASPEC. ADAMTS-4 recombinant protein (catalog #4307-AD) and ADAMTS-5 recombinant protein (catalog #2198-AD) were purchased from R&D Systems.
# (§2) An assay buffer containing 50 mM HEPES pH 7.5, 100 mM NaCl, 5 mM CaCl2, 0.1% CHAPS and 5% Glycerol was prepared. A volume of 2.5 μl of compound in the assay buffer was dispensed to a 384-well plate, and 2.5 μl of ADAMTS-4 or ADAMTS-5 protein (final concentration in the reaction was 10 nM) was added. The compounds and proteins were pre-incubated at room temperature for 15 minutes. Then, 5 μl of substrate was added to each well. The final substrate concentrations for ADAMTS-4 and ADAMTS-5 were 15 μM and 8 μM, respectively. The fluorescence signal in each well was determined, after incubation at 37° C. for 3 hours, on a TECAN plate reader (Excitation, 490 nm; Emission, 520 nm).
# (§3) The data was inputted into GraphPad Prism, and the IC50 values were calculated using function “log (inhibitor) vs. response—Variable slope (four parameters)”. (See Table 1)
# [2] = molecular target: T1, ADAMTS-5 recombinant protein (Homo sapiens (Human), UniProt Q9UNA0); test: In vitro ELISA of ADAMTS-5 activity (Aggrecan-IGD enzymatic assay); format: biochemical; conditions: aggrecan-IGD substrate, ARGSVIL-peptide ELISA, 37° C. 45 minutes
# T1 sequence (Q9UNA0 262-622): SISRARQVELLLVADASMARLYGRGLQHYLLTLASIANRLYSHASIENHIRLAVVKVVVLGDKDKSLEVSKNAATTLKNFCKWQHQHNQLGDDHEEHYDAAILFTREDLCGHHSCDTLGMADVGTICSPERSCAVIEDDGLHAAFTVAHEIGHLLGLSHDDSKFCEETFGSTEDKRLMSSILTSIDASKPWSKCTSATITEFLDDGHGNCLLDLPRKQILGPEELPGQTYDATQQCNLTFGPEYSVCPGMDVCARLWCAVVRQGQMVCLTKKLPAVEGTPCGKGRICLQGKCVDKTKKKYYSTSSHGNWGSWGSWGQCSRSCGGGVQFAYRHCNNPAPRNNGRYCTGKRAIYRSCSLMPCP
# Protocol: In this assay, the enzymatic activity of recombinant ADAMTS-5 protein (catalog #2198-AD, R&D Systems) was assayed with a protein substrate, the aggrecan IGD protein. The aggrecan IGD protein is a polypeptide connecting human aggrecan globular domains 1 and 2 (T331-G458) expressed in E. Coli with a C-terminal His-tag (catalog #30411000, BIOTEZ). The enzymatic product ARGSVIL-peptide was detected using an ELISA kit from BioTEZ (catalog #30510111).
# An assay buffer containing 50 mM HEPES pH 7.5, 100 mM NaCl, 5 mM CaCl2), 0.1% CHAPS and 5% Glycerol was prepared. Recombinant ADAMTS-5 protein was diluted to 0.3 nM in the assay buffer. Ten μl of […] and 10 μl of compound solution was transferred to each well of a 96-well plate and incubated at room temperature for 15 minutes. Substrate aggrecan-IGD was diluted to 100 nM with the assay buffer and 20 μl was added to each well. The plate was incubated at 37° C. for 45 minutes. After incubation, the newly generated epitope ARGSVIL-peptides were measured using the Aggrecanase Activity ELISA Assay Kit following the manufacturer's instructions. Then, 100 μl of stop solution was added and the absorbance of each well was read at 450 nm, using […] as reference on a TECAN plate reader.
# A standard curve of the ELISA assay was generated in GraphPad Prism using Sigmoidal 4PL function and the corresponding peptide concentrations were calculated based on the standard curve. The IC50 values were calculated using function “log (inhibitor) vs. response—Variable slope (four parameters)”. (See Table 2).
# [3] = molecular target: T1, ADAMTS-5 recombinant protein; test: In vitro fluorescence (FRET-peptide) enzymatic assay of ADAMTS-5 activity; format: biochemical; conditions: FRET peptide substrate 8 μM, 10 nM enzyme, 37° C. 3 hours
# Protocol: as §1, §2, §3
# [4] = system: mouse femoral head cartilage; test: Mouse explant assay (IL-1α induced GAG release); format: cell-based; conditions: inhibition of GAG release, IL-1α 1 ng/ml, 72 hours; for inhibition at 2 µM: compound 2 μM; for inhibition at 20 µM: compound 20 μM
# Protocol: In this assay, fresh mouse femoral head cartilage was treated with IL-1α protein (Sigma-Aldrich, catalog #12778) in culture media, which induces the cartilage catabolism. Then, the GAGs attached to the cleaved aggrecan fragments (released in the media) and the GAGs attached to the intact aggrecan were measured by dimethylmethylene blue dye in the Glycosaminoglycans Assay Kit (Chondrex, catalog #6022).
# Femoral head cartilage samples were isolated from mice (25 days old, male, C57BL/6, from Charles River Lab) and put into 2.0 ml tubes filled-up with media (DMEM, 10% FBS, 4 mM Glutamine, penicillin-streptomycin, 20 mM HEPES). Two hundred μl of media without FBS was added to each well of a 48-well plate, and one piece of cartilage was transferred to a well in the plate. Then the media was aspirated, and compounds and IL-1α protein were added to the plate in a total volume of 400 μl of fresh media without FBS. The final concentration of IL-1α was 1 ng/ml. The plate was incubated at 37° C. for 72 hours in a humidified incubator with 5% CO2 supply.
# The supernatant was transferred to a 1.5 ml tube and kept at −20° C. Each cartilage sample was transferred to another 1.5 ml tube containing 400 μl of freshly made papain solution. The papain solution contained 125 μg/ml papain (Sigma-Aldrich, catalog #P3125), 0.1 M sodium acetate (Sigma-Aldrich, catalog #S7899), pH 5.5 and 5 mM EDTA and 5 mM L-cysteine-HCl (Sigma-Aldrich, catalog #C7880). The cartilage samples were kept rocking in a 60° C. water bath for 24 hours. The lysates were vortexed for 10 seconds and spinned at 10,000 rpm for 2 minutes.
# Both the supernatant and the lysate samples were diluted with PBS and mixed with 100 μl of dye from the Glycosaminoglycans Assay Kit. The optical density from each well was determined with a TECAN plate reader set to a wavelength of 525 nm.
# The concentrations of GAGs in the supernatant and lysates were determined based on the standard curve with a dose range of chondroitin sulfate provided in the kit. The percentage of GAG release was calculated as the following
# The test compound effect was expressed as the percent of inhibition using the following formula: […]
# ADAMTS-4 recombinant protein, sequence (O75173 213-685): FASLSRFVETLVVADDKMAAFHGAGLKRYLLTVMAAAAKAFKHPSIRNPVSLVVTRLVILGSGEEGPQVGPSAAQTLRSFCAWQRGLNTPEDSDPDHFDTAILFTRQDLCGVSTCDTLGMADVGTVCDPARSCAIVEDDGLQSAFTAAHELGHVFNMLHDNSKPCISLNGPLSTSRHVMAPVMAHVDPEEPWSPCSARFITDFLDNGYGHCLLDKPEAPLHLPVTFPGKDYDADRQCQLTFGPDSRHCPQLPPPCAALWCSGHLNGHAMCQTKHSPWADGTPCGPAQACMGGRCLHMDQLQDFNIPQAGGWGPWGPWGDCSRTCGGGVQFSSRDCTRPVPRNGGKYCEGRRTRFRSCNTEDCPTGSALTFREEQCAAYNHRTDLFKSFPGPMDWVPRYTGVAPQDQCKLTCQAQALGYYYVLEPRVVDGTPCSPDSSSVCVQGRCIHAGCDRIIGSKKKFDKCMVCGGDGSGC
SMILES,IC50 [1] [nM],IC50 [2] [nM],IC50 [3] [nM],inhibition at 2 µM [4] [%],inhibition at 20 µM [4] [%]
"C[C@@H]1c2cc(Cl)c(Cl)cc2CN1C(=O)CC[C@@]1(C2CC2)NC(=O)NC1=O [Example 66-2, (S)-5-cyclopropyl-5-(3-((R)-5,6-dichloro-1-methylisoindolin-2-yl)-3-oxopropyl)imidazolidine-2,4-dione]",12,19,10,23,87
"CC1CN(C(=O)CC[C@@]2(C3CC3)NC(=O)NC2=O)CCc2ccc(Cl)cc21 (stereo partly drawn) [Example 8, (5S)-5-(3-(8-chloro-1-methyl-4,5-dihydro-1H-benzo[d]azepin-3 (2H)-yl)-3-oxopropyl)-5-cyclopropylimidazolidine-2,4-dione]",66,130,53,22,63
"O=C1NC(=O)[C@](CCC(=O)N2Cc3cc(Cl)c(Cl)cc3C2)(C2CC2)N1 [Example 20, (S)-5-cyclopropyl-5-(3-(5,6-dichloroisoindolin-2-yl)-3-oxopropyl)imidazolidine-2,4-dione]",22,–,37,67,100
"O=C1NC(=O)[C@](CCC(=O)N2Cc3cc(Cl)c(C(F)(F)F)cc3C2)(C2CC2)N1 [Example 40, (S)-5-(3-(5-chloro-6-(trifluoromethyl)isoindolin-2-yl)-3-oxopropyl)-5-cyclopropylimidazolidine-2,4-dione]",42,92,25,2,52
"C[C@H]1CN(C(=O)CC[C@@]2(C3CC3)NC(=O)NC2=O)CCc2ccc(Cl)cc21 [Example 21, (S)-5-(3-((R)-8-chloro-1-methyl-1,2,4,5-tetrahydro-3H-benzo[d]azepin-3-yl)-3-oxopropyl)-5-cyclopropylimidazolidine-2,4-dione]",20,–,16,39,100
"O=C1NC(=O)C(CCC(=O)N2Cc3cc(Cl)c(C(F)(F)F)cc3C2)(c2ncccn2)N1 (stereo not drawn) [Example 79, 5-(3-(5-chloro-6-(trifluoromethyl)isoindolin-2-yl)-3-oxopropyl)-5-(pyrimidin-2-yl)imidazolidine-2,4-dione]",250,210,110,–,–
"CC1CN(C(=O)CC[C@@]2(C3CC3)NC(=O)NC2=O)CCc2ccc(F)cc21 (stereo partly drawn) [Example 22, (5S)-5-cyclopropyl-5-(3-(8-fluoro-1-methyl-1,2,4,5-tetrahydro-3H-benzo[d]azepin-3-y1)-3-oxopropyl)imidazolidine-2,4-dione]",51,140,61,–,–
"[2H]C1([2H])c2cc(Cl)c(Cl)cc2C([2H])([2H])N1C(=O)CC[C@@]1(C2CC2)NC(=O)NC1=O [Example 80, (S)-5-cyclopropyl-5-(3-(5,6-dichloroisoindolin-2-yl-1,1,3,3-d4)-3-oxopropyl)imidazolidine-2,4-dione]",28,–,32,30,73
"Cc1cc(C2(CCC(=O)N3Cc4cc(Cl)c(C(F)(F)F)cc4C3)NC(=O)NC2=O)n[nH]1 (stereo not drawn) [Example 78, 5-(3-(5-chloro-6-(trifluoromethyl)isoindolin-2-yl)-3-oxopropyl)-5-(5-methyl-1H-pyrazol-3-yl)imidazolidine-2,4-dione]",160,76,57,–,–
"COc1cc2c(cc1Cl)CN(C(=O)C(C)C[C@@]1(C3CC3)NC(=O)NC1=O)C2 (stereo partly drawn) [Example 36-1, (5S)-5-(3-(5-chloro-6-methoxyisoindolin-2-yl)-2-methyl-3-oxopropyl)-5-cyclopropylimidazolidine-2,4-dione]",21,36,15,–,–
"Cc1nc(C2(CCC(=O)N3Cc4cc(Cl)c(C(F)(F)F)cc4C3)NC(=O)NC2=O)co1 (stereo not drawn) [Example 81, 5-(3-(5-chloro-6-(trifluoromethyl)isoindolin-2-yl)-3-oxopropyl)-5-(2-methyloxazol-4-yl)imidazolidine-2,4-dione]",260,120,77,–,–
"CC(C[C@@]1(C2CC2)NC(=O)NC1=O)C(=O)N1Cc2ccc(C(F)(F)F)cc2C1 (stereo partly drawn) [Example 29, (5S)-5-cyclopropyl-5-(2-methyl-3-oxo-3-(5-(trifluoromethyl)isoindolin-2-yl)propyl)imidazolidine-2,4-dione]",14,56,22,–,–
"CC(C)C(C[C@@]1(C2CC2)NC(=O)NC1=O)C(=O)N1Cc2ccc(C(F)(F)F)cc2C1 (stereo partly drawn) [Example 49-2, (5S)-5-cyclopropyl-5-(3-methyl-2-(5-(trifluoromethyl)isoindoline-2-carbonyl)butyl)imidazolidine-2,4-dione]",15,55,20,–,–
"O=C1NC(=O)C(CCC(=O)N2Cc3cc(Cl)c(Cl)cc3C2)(c2ccccn2)N1 (stereo not drawn) [Example 61, 5-(3-(5,6-dichloroisoindolin-2-yl)-3-oxopropyl)-5-(pyridin-2-yl)imidazolidine-2,4-dione]",40,72,42,–,–
"[2H]C1([2H])c2cc(Cl)c(Cl)cc2C(C)N1C(=O)CC[C@@]1(C2CC2)NC(=O)NC1=O (stereo partly drawn) [Example 69, (5S)-5-cyclopropyl-5-(3-(5,6-dichloro-1-methylisoindolin-2-yl-3,3-d2)-3-oxopropyl)imidazolidine-2,4-dione]",68,47,40,–,–
"COc1ccc2c(c1)CN(C(=O)CC[C@@]1(C3CC3)NC(=O)NC1=O)C2 [Example 24, (S)-5-cyclopropyl-5-(3-(5-methoxyisoindolin-2-yl)-3-oxopropyl)imidazolidine-2,4-dione]",120,840,360,–,–
"O=C1NC(=O)[C@](CCC(=O)N2Cc3cc(F)c(C(F)(F)F)cc3C2)(C2CC2)N1 [Example 39, (S)-5-cyclopropyl-5-(3-(5-fluoro-6-(trifluoromethyl)isoindolin-2-yl)-3-oxopropyl)imidazolidine-2,4-dione]",110,65,62,–,–
